This note sets out measurements from patent publication US20100222875A1, “METHOD FOR FORMING A POROUS STENT COATING” (Abbott Cardiovascular Systems Inc., priority 2006, published 2010).

The structures appear in SMILES notation.

The nature of the data set: in vitro drug release from a PBMA-coated stent. It counts as physicochemical. The note with it: over 24 hours, everolimus in PBMA drug coat, drug:polymer ratio 1 to 1.25, with 40-μg PBMA topcoat (0.3 micron coating thickness) on 18-mm medium stent. The source says: Of import to the present invention is that a polymer's mesh size can be altered by the formation of pores within the polymer itself. One means of accomplishing this is to add such a large concentration of drug to the polymer that the drug phase separates out. Thus, during stent synthesis, drug is released, thereby forming pores within the polymer. However, a topcoat is often added to control drug release and prevent an initial bolus or burst release of drug. Unfortunately, sometimes even the thinnest topcoat that can be applied leads to a drug release that is too slow to be therapeutically effective. One example is everolimus in a PBMA drug coat with a PBMA topcoat. For example, it has been shown that a thin 40-μg PBMA topcoat on an 18-mm medium stent, i.e., a 0.3 micron coating thickness, with a drug:polymer ratio of 1 to 1.25, gave only 7.1% drug release over 24 hours in an in vitro experiment.

`CO[C@H]1C[C@@H]2CC[C@@H](C)[C@@](O)(O2)C(=O)C(=O)N2CCCC[C@H]2C(=O)O[C@H]([C@H](C)C[C@@H]2CC[C@@H](OCCO)[C@H](OC)C2)CC(=O)[C@H](C)/C=C(\C)[C@@H](O)[C@@H](OC)C(=O)[C@H](C)C[C@H](C)/C=C/C=C/C=C/1C` [everolimus]: the drug release is given as 7.1%.
